Data taken from patent publication US20240041042A1, “1-(PYRIDYL)-5-AZINYLPYRAZOLE DERIVATIVES, AND THEIR USE FOR CONTROL OF UNDESIRED PLANT GROWTH” (Bayer Aktiengesellschaft, priority 2020, published 2024).

How the values were obtained:
Format in all cases: in vivo
[1] = tested on: Alopecurus myosuroides (ALOMY); test: Pre-emergence herbicidal action against ALOMY; conditions: scored visually after about 3 weeks, 100% = plants have died
How it was run: (§1)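 Pre-emergence soil-surface spray, WP/EC formulation, 0.5% additive, 600 l/ha water, rates of 320 g/ha or lower. Greenhouse, ~3 wk. Visual score, % of untreated control (100% = plants dead, 0% = like control).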

[2] = tested on: Matricaria inodora (MATIN); test: Post-emergence herbicidal action against MATIN
How it was run: (§2)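 Greenhouse plants sprayed at the one-leaf stage, 2–3 weeks after sowing, with WP or EC formulations plus 0.5% additive at 600 l/ha water. Activity rated visually after about 3 weeks versus untreated controls (100% = dead, 0% = like control), at 320 g/ha or lower.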

[3] = tested on: Avena fatua (AVEFA); test: Pre-emergence herbicidal action against AVEFA; conditions: visual scoring after about 3 weeks vs untreated controls
How it was run: as §1

[4] = tested on: Avena fatua (AVEFA); test: Post-emergence herbicidal action against AVEFA; conditions: visual rating about 3 weeks after treatment
How it was run: as §2

[5] = tested on: Viola tricolor (VIOTR); test: Pre-emergence herbicidal action against VIOTR
How it was run: as §1

[6] = tested on: Setaria viridis (SETVI); test: Post-emergence herbicidal action against SETVI
How it was run: as §2

[7] = tested on: Polygonum convolvulus (POLCO); test: Pre-emergence herbicidal action against POLCO
How it was run: as §1

[8] = tested on: Lolium rigidum (LOLRI); test: Post-emergence herbicidal action against LOLRI
How it was run: as §2

[9] = tested on: Polygonum convolvulus (POLCO); test: Post-emergence herbicidal action against POLCO
How it was run: as §2

[10] = tested on: Verconica persica (VERPE); test: Pre-emergence herbicidal action against VERPE
How it was run: as §1

| SMILES | Pre-emergence action against ALOMY ([1]; 80 g/ha) | Pre-emergence action against ALOMY ([1]; 320 g/ha) | Post-emergence action against MATIN in % ([2]; dosage 320 g/ha) | Pre-emergence action against AVEFA in % ([3]; 80 g/ha) | Pre-emergence action against AVEFA in % ([3]; 320 g/ha) | Post-emergence action against AVEFA in % ([4]; 80 g/ha) | Post-emergence action against AVEFA in % ([4]; 320 g/ha) | Pre-emergence action against VIOTR in % ([5]; 320 g/ha, Viola tricolor) | Pre-emergence action against VIOTR in % ([5]; dosage 80 g/ha) | Post-emergence action against SETVI in % ([6]; dosage 80 g/ha) | Post-emergence action against SETVI in % ([6]; dosage 320 g/ha) | Pre-emergence action against POLCO in % ([7]; dosage 80 g/ha) | Pre-emergence action against POLCO in % ([7]; dosage 320 g/ha) | Post-emergence action against LOLRI in % ([8]; dosage 320 g/ha) | Post-emergence action against POLCO in % ([9]; dosage 80 g/ha) | Post-emergence action against POLCO in % ([9]; dosage 320 g/ha) | Pre-emergence action against VERPE in % ([10]; dosage 80 g/ha) | Pre-emergence action against VERPE in % ([10]; dosage 320 g/ha) | Post-emergence action against MATIN in % ([2]; dosage 80 g/ha) | Post-emergence action against LOLRI in % ([8]; dosage 80 g/ha) |
| --- | --- | --- | --- | --- | --- | --- | --- | --- | --- | --- | --- | --- | --- | --- | --- | --- | --- | --- | --- | --- |
| COCCOC(=O)COc1nn(-c2ncccc2C)c(-c2cncc(F)c2)c1Br [Example I-212] | 100% | 100% | 80% | 80% | 90% | 80% | 90% | 100% | 100% | 80% | 80% | 90% | 90% | 80% | 80% | 90% | 80% | 100% | – | – |
| CCOC(=O)COc1nn(-c2nc(F)ccc2F)c(-c2cncc(F)c2)c1C1CC1 [Example I-149] | 90% | 100% | 90% | 80% | 90% | – | 80% | 100% | 100% | 80% | 80% | 80% | 90% | 90% | – | 80% | – | 100% | 80% | 80% |
| CCOC(=O)[C@@H](C)Oc1nn(-c2ncccc2F)c(-c2ccc(F)nc2)c1C1CC1 [Example I-375] | 80% | 90% | 80% | 90% | 100% | 90% | 90% | 100% | 100% | 90% | 90% | 90% | 90% | 90% | 80% | 90% | 100% | 100% | – | 90% |
| COC(=O)[C@@H](C)Oc1nn(-c2ncccc2F)c(-c2ccc(F)nc2)c1C(F)(F)F [Example I-331] | 100% | 100% | 80% | 100% | 100% | 90% | 90% | 100% | 100% | 90% | 90% | 100% | 100% | 90% | 80% | 80% | 100% | 100% | 80% | 90% |
| C[C@@H](Oc1nn(-c2ccccn2)c(-c2cncc(F)c2)c1Cl)C(=O)O [Example I-218] | 90% | 90% | 80% | 80% | 90% | 80% | 90% | 100% | 100% | 80% | 80% | 90% | 90% | 90% | – | 80% | 90% | 100% | – | 80% |
| COC(=O)CNC(=O)[C@@H](C)Oc1nn(-c2ccccn2)c(-c2cncc(F)c2)c1Br [Example I-187] | 90% | 100% | 80% | – | 90% | – | 80% | 100% | 100% | – | 80% | 90% | 90% | 90% | 80% | 80% | 90% | 90% | – | 90% |
| COC(=O)CCOC(=O)[C@@H](C)Oc1nn(-c2ccccn2)c(-c2cncc(F)c2)c1Cl [Example I-196] | – | 90% | 80% | 80% | 90% | 80% | 90% | 100% | 90% | 80% | 80% | 90% | 90% | 90% | 80% | 80% | 90% | 100% | – | 90% |
| COC(=O)[C@H](C)COC(=O)COc1nn(-c2ccccn2)c(-c2cncc(F)c2)c1Cl [Example I-192] | 90% | 90% | 80% | – | 90% | – | 80% | 100% | 80% | 80% | 80% | 90% | 100% | 80% | – | 80% | – | 90% | – | – |
| COC(=O)C(C)NC(=O)[C@@H](C)Oc1nn(-c2ccccn2)c(-c2cncc(F)c2)c1Br (stereo partly shown) [Example I-190] | 80% | 90% | 80% | – | 90% | – | 80% | 100% | 100% | 80% | 80% | 90% | 90% | 90% | 80% | 80% | 80% | 100% | – | 90% |
